Data from publication PMC5770468, “Cardiac glycoside/aglycones inhibit HIV-1 gene expression by a mechanism requiring MEK1/2-ERK1/2 signaling” (Scientific Reports, 2018).
Where two headings read alike, the source gives them in different places.

Columns and labels:
[1] = tested on: HIV-1 (Gag) gene expression; assay: HIV-1 (Gag) gene expression in HeLa rtTA-HIV-ΔMls cells, p24CA ELISA dose response; assay type: cell-based, HIV-1 (LAI)
Description: Drug/compounds were tested for effects on HIV-1 gene expression using inducible Tet-ON HIV-1 cell lines [HeLa rtTA-HIV-ΔMls or rtTA-HIV(Gag-GFP)] containing a HIV-1 (LAI) provirus activatable by Dox or tetracycline transactivator (tTA)[69]. The rtTA-HIV-ΔMls provirus was modified and used as previously reported[9]–[11],[70]. The rtTA-HIV(Gag-GFP) provirus was generated by deletion of the PR and RT coding regions within pol and insertion of GFP to the 3′ of gag, creating GFP fused to the C-terminal of Gag. After 4 h of drug/compound treatment, HIV-1 gene expression was activated with Dox (2 μg/mL) or tTA (described below). Equal concentrations of DMSO were present in each experiment. After ~20 h, cells and media were harvested to monitor the effects of drug/compound treatments as described below. HIV-1 gene expression was quantified via p24^CA ELISA or monitoring Gag-GFP fluorescence in cells as described below. In parallel, cell viability of treatments were assessed by XTT assay (Sigma-Aldrich, #TOX2).
Drug/compounds were purchased from Sigma (Digoxin, #D6003; Digitoxin, #D5878; Digoxigenin, #D9026; Digitoxigenin, #D9404; Ouabain, #O3125; Bufalin, #S961175; Cinobufagin, #C1272; and Anisomycin, #A9789) and derivatives of convallatoxin were synthesized from C. Lingwood’s lab of the Hospital for Sick Children (convallatoxin, peruvoside, RIDK-34, -36, -20, -21, -27, and -28). […] Recombinant human EGF was from Invitrogen (#PHG0314). Chemical structures were drawn in ChemSketch (ACD/Labs).
To monitor HIV-1 gene expression or replication, Gag release into cell culture supernatants were assayed by ELISA using a p24^CA antigen capture assay kit (AIDS & Cancer Virus Program, NCI-Frederick, Frederick, MD USA). Media harvested from HIV clinical isolates were diluted ~10 fold (or as necessary) prior to performing this assay. For analysis of HIV-1 and SR protein expression (and phosphorylation states with calf intestinal alkaline phosphatase treatments), cells were lysed and analyzed by western blot as previously outlined. Phosphatase inhibitors (e.g. 10 mM sodium fluoride, 2 mM sodium orthovanadate) were added to solutions requiring phospho protein analyses. An anti-chicken NKA antibody (α6F, #a6F–c, Developmental Studies Hybridoma Bank, The University of Iowa, contributed by Douglas M. Fambrough, The Johns Hopkins University) was used as specified to detect NKA α1- and β1-subunits across species. […] Activation of MAPKs was determined by western blot quantitation and calculation of phospho/total protein levels. […] Images were exported as TIF files for assembly, rotation, and equal brightness/contrast adjustments in ImageJ or Microsoft Powerpoint. Some lanes were cropped and rearranged from the same blot/gel as indicated. In representative gel/blot sets, samples were electrophoresed from the same experiment as controls, resolved simultaneously on identically cast gel(s), transferred to same PVDF (by either wet electrophoretic or by Bio-Rad Trans-Blot® Turbo Transfer System), and detected at same time. Marked locations of molecular weight (MW) standards are shown on the left as a reference. […] SUnSET analysis of total cellular protein synthesis. HeLa rtTA-HIV-ΔMls cells were cultured in the presence/absence of compound and pathway inhibitor (if any) and Dox induced for ~24 h as already described, then treated with puromycin (10 μg/mL, Sigma-Aldrich, #P8833) for 30 min to label nascent proteins prior to harvest. As control, 10 µM of cycloheximide (Sigma-Aldrich, #C4849) was added to some cells prior to puromycin treatment. Cells were subsequently washed, whole cell lysates prepared, and proteins quantified by western blot using an anti-puromycin antibody (EMD Millipore, #anti-12D10) as described above. Transfection of plasmid DNA into cells.

HIV-1 US RNAs = assay: FISH localization of HIV-1 US RNA in HeLa rtTA-HIV(Gag-GFP) cells; assay type: cell-based; conditions: ~IC90s of CSs
From the text: Figure 4 CSs suppress HIV-1 gene expression by altering viral RNA processing. […] (a,b) CSs induce oversplicing of HIV-1 RNAs (n ≥ 3, mean, s.e.m.). (a) Diagram of the primer positions (arrow heads) used for qRT-PCR. (b) Graph of the relative amount of US (black), SS (white), and MS (gray) HIV-1 RNAs in cells treated with various CSs. (c) Nuclear export of HIV-1 US RNAs in cells is altered by CSs (representative n ≥ 4). HIV-1 US RNAs were localized by FISH after treating HeLa rtTA-HIV(Gag-GFP) cells as described above but with ~IC90s of CSs. Nuclei were stained by DAPI and images captured at 630 × magnification. (d) CSs induce differential post-translational modification of SR proteins (representative n ≥ 3). SRp20, Tra2β, and tubulin were analyzed by immunoblot of HeLa rtTA-HIV-ΔMls cells treated as described above except cells of this representative blot were treated 3 d with ~IC50s of CSs. (g) Lanes were cropped and assembled from the same gel/blot per box (Supplementary Fig. S4d).
RNA was extracted from cells, reverse transcribed, and resulting cDNAs subject to qRT-PCR quantification of HIV-1 mRNAs as previously described except reactions used iTaq™ Universal SYBR® Green Supermix (Bio-Rad, #172-5120) run on a Bio-Rad CFX384 Touch™ Real-Time PCR Detection System and analyzed with CFX Manager™[9]. NKA α1, 2, and 3 subunits were detected by published primers, amplified by iTaq using the same cycling temperature and times previously described for HIV-1 US/MS cDNAs except α1, 2, and 3 annealing temperatures were 61 °C[9],[73]. All data was normalized to β-actin as internal loading control. Primers sequences for NKA α subunits were as follows: α1 forward (5′-[…] -3′), α1 reverse (5′- […] -3′), α2 forward (5′-[…]-3′), α2 reverse (5′-[…]-3′), α3 forward (5′-[…]-3′), and α3 reverse (5′-GGGCAGACTCAGACGCATC-3′). Monitoring the subcellular localization of HIV-1 genomic RNA. HeLa rtTA-HIV(Gag-GFP) cells were seeded on cover slips, treated with drug/compound, and processed for FISH to detect HIV-1 US RNAs using Stellaris™ probes (Biosearch Technologies) as previously detailed[10],[11].

HeLa rtTA-HIV-ΔMls cells = assay: In vitro therapeutic index (CC20/IC50) in HeLa rtTA-HIV-ΔMls cells; assay type: cell-based, human
From the text: Without median toxic dose (TD50) and half-maximal effective concentration (EC50) data available to calculate TIs (in vivo) from HIV patients treated with CSs, we determined the following TIs for each cell type treated with a CS (summarized in Supplementary Table S1): in vitro TIs from HeLa rtTA-HIV-ΔMls cells using CC20/IC50 (instead of CC50/IC50), in vitro TIs from 24ST1NLESG cells using CC50/IC50, and ex vivo TIs from HIV-infected PBMCs using CC50/IC50 (at day 14 of culture approximated from available cell viability trends for CC50s of Supplementary Fig. S13 and inferred near maximal IC50s).
Supplementary Table S1. Comparison of the in vitro (IVTI) and ex vivo therapeutic indices (EVTIs) of CSs and their impact on the expression of essential HIV-1 proteins.
Notes: data for CC20, CC50, and IC50s for each drug/compound were estimated from dose response curves in Figures 1-2, Supplementary Table S1, Supplementary Figures S2, S5, and S13, and Wong et al.
">" means the estimate has not been accurately determined but is greater than the highest concentration […]
"( )" indicates preliminary data that was not shown. aCC20 instead of CC50 was estimated from dose response curves and used for calculation of IVTIs. bCells were treated at ~IC90of a CS.
(1 picture or pasted object on this page, not shown here)

**Q.** What does the source list for `C[C@]12CC[C@H](O)C[C@H]1CC[C@@H]1[C@@H]2CC[C@]2(C)[C@@H](c3ccc(=O)oc3)CC[C@]12O` [Bufalin]?
**A.** IC50 lower for HIV-1 inhibition compared to digoxin [1]: 9 fold; better anti-HIV-1 activity than digoxin [1]: 9 fold; IC50 ([1]; Human immunodeficiency virus 1, HeLa, read-out: IC50 (nM) HeLa rtTA-HIV-ΔMls): 5 nM; IC90 ([1]; Human immunodeficiency virus 1, HeLa, read-out: IC90, HIV-1 (Gag) gene expression): 15 nM; IC80 ([1]; Human immunodeficiency virus 1, HeLa, read-out: ~IC80 (approximate concentration used in experiments)): ~11 nM; IC90 ([1]; Human immunodeficiency virus 1, HeLa, read-out: ~IC90 (approximate concentration used in experiments)): ~15 nM; HIV-1 US RNA subcellular localization (HIV-1 US RNAs): almost exclusively within the nucleus; better in vitro TI than digoxin (HeLa rtTA-HIV-ΔMls cells): 9 fold
